# Target: T1, sodium ion channel (Nav1.7) (Homo sapiens, UniProt Q15858)
# T1 construct: host or cells: HEK293
# Experiment: Blocking effect against sodium ion channel (Nav1.7), IonFlux16 auto patch clamp, hNav1.7 HEK293 cells
# Format: cell-based
# Settings: peak current after 50 seconds treatment, eight concentrations
# Method in brief: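 HEK293 cells stably expressing human Nav1.7 were recorded by IonFlux16 automated patch clamp in extracellular solution (pH 7.45, final DMSO ≤0.3%). Peak current was measured after 50 s exposure to each of eight compound concentrations and expressed as percent inhibition relative to pre-compound current.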
# T1 sequence (Q15858 whole entry): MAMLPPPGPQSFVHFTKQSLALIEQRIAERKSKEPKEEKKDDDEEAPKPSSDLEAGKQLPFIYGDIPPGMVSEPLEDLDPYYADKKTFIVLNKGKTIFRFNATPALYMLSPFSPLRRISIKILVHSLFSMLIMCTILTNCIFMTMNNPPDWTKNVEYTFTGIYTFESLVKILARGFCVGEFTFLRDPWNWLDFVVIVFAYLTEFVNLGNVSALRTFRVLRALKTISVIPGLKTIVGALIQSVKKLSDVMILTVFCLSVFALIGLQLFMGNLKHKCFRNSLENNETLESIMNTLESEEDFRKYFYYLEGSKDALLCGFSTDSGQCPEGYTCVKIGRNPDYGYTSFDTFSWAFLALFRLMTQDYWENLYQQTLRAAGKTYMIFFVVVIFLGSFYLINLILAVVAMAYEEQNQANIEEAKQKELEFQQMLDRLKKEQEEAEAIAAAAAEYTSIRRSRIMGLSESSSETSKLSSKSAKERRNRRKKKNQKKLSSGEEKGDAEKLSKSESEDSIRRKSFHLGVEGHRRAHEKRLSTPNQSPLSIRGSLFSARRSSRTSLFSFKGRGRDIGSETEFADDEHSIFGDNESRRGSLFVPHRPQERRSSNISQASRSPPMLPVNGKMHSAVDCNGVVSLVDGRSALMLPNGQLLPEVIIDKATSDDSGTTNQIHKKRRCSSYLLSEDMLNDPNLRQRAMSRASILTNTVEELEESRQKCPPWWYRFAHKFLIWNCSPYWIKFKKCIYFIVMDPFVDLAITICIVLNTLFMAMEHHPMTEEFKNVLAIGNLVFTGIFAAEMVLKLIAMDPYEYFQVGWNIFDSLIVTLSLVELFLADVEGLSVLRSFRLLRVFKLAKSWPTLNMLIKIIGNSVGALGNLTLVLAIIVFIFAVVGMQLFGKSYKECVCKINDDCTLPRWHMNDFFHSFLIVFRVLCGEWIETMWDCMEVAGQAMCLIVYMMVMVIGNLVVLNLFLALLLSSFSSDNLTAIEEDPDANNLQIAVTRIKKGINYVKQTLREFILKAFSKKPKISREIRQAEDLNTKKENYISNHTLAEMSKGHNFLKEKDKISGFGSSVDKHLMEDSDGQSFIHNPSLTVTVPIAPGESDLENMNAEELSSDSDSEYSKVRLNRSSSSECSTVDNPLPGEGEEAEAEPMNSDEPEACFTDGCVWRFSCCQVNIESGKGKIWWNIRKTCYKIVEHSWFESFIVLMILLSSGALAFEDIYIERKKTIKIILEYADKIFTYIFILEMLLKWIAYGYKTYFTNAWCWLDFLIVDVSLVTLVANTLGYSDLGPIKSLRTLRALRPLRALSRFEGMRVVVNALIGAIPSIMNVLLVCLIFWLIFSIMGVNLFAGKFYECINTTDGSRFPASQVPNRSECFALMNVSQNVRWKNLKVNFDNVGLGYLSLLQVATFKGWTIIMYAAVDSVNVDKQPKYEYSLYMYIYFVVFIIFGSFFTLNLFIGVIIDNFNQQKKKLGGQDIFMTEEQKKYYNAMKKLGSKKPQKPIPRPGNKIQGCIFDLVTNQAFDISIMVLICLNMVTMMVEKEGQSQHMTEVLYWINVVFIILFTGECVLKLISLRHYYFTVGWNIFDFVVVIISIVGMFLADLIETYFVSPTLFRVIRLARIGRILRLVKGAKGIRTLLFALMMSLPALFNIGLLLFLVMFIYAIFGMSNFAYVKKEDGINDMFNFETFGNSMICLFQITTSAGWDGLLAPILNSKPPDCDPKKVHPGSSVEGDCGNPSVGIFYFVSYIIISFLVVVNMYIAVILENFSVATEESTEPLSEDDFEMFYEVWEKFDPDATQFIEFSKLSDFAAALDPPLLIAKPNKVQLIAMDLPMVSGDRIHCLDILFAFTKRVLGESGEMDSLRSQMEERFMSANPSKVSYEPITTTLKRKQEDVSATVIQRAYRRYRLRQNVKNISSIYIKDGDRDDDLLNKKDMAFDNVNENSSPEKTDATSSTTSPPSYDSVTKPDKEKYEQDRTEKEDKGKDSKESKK
row,SMILES,IC50 [µM]
1,"O=S(=O)(Nc1cscn1)c1cc(Cl)c(Oc2ccc(-c3ccccc3F)nc2-c2ccoc2)cc1F [Example 133, 5-chloro-2-fluoro-4-((6-(2-fluorophenyl)-2-(furan-3-yl)pyridin-3-yl)oxy)-N-(thiazol-4-yl)benzenesulfonamide]",> 0.1
2,"N#Cc1cc(S(=O)(=O)Nc2nccs2)ccc1Oc1cnc(-c2ccccc2)cc1-c1ccc(F)nc1 [Example 30, 3-cyano-4-((6-fluoro-6′-phenyl-[3,4′-bipyridin]-3′-yl)oxy)-N-(thiazol-2-yl)benzenesulfonamide]",> 0.1
3,"O=S(=O)(Nc1nccs1)c1ccc(C(O)c2ccc(-c3ccoc3)cc2-c2ccoc2)c(F)c1 (stereo not shown) [Example 141, 4-((2,4-di(furan-3-yl)phenyl)(hydroxy)methyl)-3-fluoro-N-(thiazol-2-yl)benzenesulfonamide]",> 0.1
4,"O=S(=O)(Nc1nccs1)c1ccc(C(O)c2ccc(-c3ccc(F)nc3)cc2-c2ccoc2)cc1 (stereo not shown) [Example 151, 4-((4-(6-fluoropyridin-3-yl)-2-(furan-3-yl)phenyl)(hydroxy)methyl)-N-(thiazol-2-yl)benzenesulfonamide]",> 0.1
5,"O=S(=O)(Nc1cscn1)c1cc(Cl)c(Oc2cnc(-c3cccc(F)c3)cc2-c2cncc(N3CCCC3)c2)cc1F [Example 99, 5-chloro-2-fluoro-4-((6′-(3-fluorophenyl)-5-(pyrrolidin-1-yl)-[3,4′-bipyridin]-3′-yl)oxy)-N-(thiazol-4-yl)benzenesulfonamide]",> 0.1
6,"N#Cc1cc(S(=O)(=O)Nc2nccs2)ccc1Oc1cnc(-c2cncnc2)cc1-c1ccoc1 [Example 15, 3-cyano-4-(4-(furan-3-yl)-6-(pyrimidin-5-yl)pyridin-3-yloxy)-N-(thiazol-2-yl)benzenesulfonamide]",> 0.1
7,"Cn1nccc1-c1ccccc1C(O)c1ccc(S(=O)(=O)Nc2nccs2)cc1F (stereo not shown) [Example 142, 3-fluoro-4-(hydroxy(2-(1-methyl-1H-pyrazol-5-yl)phenyl)methyl)-N-(thiazol-2-yl)benzenesulfonamide]",> 0.1
8,"N#Cc1cc(S(=O)(=O)Nc2nccs2)ccc1Oc1cnc(-c2ccccc2)cc1-c1cn[nH]c1 [Example 39, 3-cyano-4-((6-phenyl-4-(1H-pyrazol-4-yl)pyridin-3-yl)oxy)-N-(thiazol-2-yl)benzenesulfonamide]",0.051 to 0.1
9,"Cn1cc(-c2cc(-c3ccc(F)cc3F)ncc2Oc2cc(F)c(S(=O)(=O)Nc3cscn3)cc2Cl)cn1 [Example 66, 5-chloro-4-((6-(2,4-difluorophenyl)-4-(1-methyl-1H-pyrazol-4-yl)pyridin-3-yl)oxy)-2-fluoro-N-(thiazol-4-yl)benzenesulfonamide 2,2,2-trifluoroacetate]",> 0.1
10,"N#Cc1cc(S(=O)(=O)Nc2nccs2)ccc1Oc1cnc(-c2ccccc2)cc1-c1cccnc1 [Example 33, 3-cyano-4-((6′-phenyl-[3,4′-bipyridin]-3′-yl)oxy)-N-(thiazol-2-yl)benzenesulfonamide]",> 0.1
11,"O=S(=O)(Nc1cscn1)c1cc(Cl)c(Oc2ccc(-c3ccnc(F)c3)nc2-c2ccoc2)cc1F [Example 132, 5-chloro-2-fluoro-4-((2′-fluoro-6-(furan-3-yl)-[2,4′-bipyridin]-5-yl)oxy)-N-(thiazol-4-yl)benzenesulfonamide]",> 0.1
12,"Cn1nccc1-c1cc(-c2ccc(F)cc2)ncc1Oc1ccc(S(=O)(=O)Nc2nccs2)cc1C#N [Example 23, 3-cyano-4-((6-(4-fluorophenyl)-4-(1-methyl-1H-pyrazol-5-yl)pyridin-3-yl)oxy)-N-(thiazol-2-yl)benzenesulfonamide]",> 0.1
13,"N#Cc1cc(S(=O)(=O)Nc2nccs2)ccc1Oc1ccc(-c2ccncc2)nc1-c1ccoc1 [Example 111, 3-cyano-4-((6-(furan-3-yl)-[2,4′-bipyridin]-5-yl)oxy)-N-(thiazol-2-yl)benzenesulfonamide]",> 0.1
14,"N#Cc1cc(S(=O)(=O)Nc2nccs2)ccc1Oc1ccc(-c2cncnc2)nc1-c1ccoc1 [Example 106, 3-cyano-4-((2-(furan-3-yl)-6-(pyrimidin-5-yl)pyridin-3-yl)oxy)-N-(thiazol-2-yl)benzenesulfonamide]",> 0.1
15,"Cn1nccc1-c1nc(-c2ccc(F)nc2)ccc1Oc1cc(F)c(S(=O)(=O)Nc2cscn2)cc1Cl [Example 137, 5-chloro-2-fluoro-4-((6′-fluoro-6-(1-methyl-1H-pyrazol-5-yl)-[2,3′-bipyridin]-5-yl)oxy)-N-(thiazol-4-yl)benzenesulfonamide]",> 0.1
16,"Cn1cc(-c2nc(-c3cccc(F)c3)ccc2Oc2ccc(S(=O)(=O)Nc3nccs3)cc2C#N)cn1 [Example 122, 3-cyano-4-((6-(3-fluorophenyl)-2-(1-methyl-1H-pyrazol-4-yl)pyridin-3-yl)oxy)-N-(thiazol-2-yl)benzenesulfonamide]",0.051 to 0.1
17,"Cn1nccc1-c1cc(-c2ccccc2F)ncc1Oc1ccc(S(=O)(=O)Nc2nccs2)cc1C#N [Example 24, 3-cyano-4-((6-(2-fluorophenyl)-4-(1-methyl-1H-pyrazol-5-yl)pyridin-3-yl)oxy)-N-(thiazol-2-yl)benzenesulfonamide]",> 0.1
18,"O=S(=O)(Nc1cscn1)c1cc(Cl)c(Oc2ccc(-c3ccc(F)nc3)nc2-c2ccoc2)cc1F [Example 130, 5-chloro-2-fluoro-4-((6′-fluoro-6-(furan-3-yl)-[2,3′-bipyridin]-5-yl)oxy)-N-(thiazol-4-yl)benzenesulfonamide]",> 0.1
19,"O=S(=O)(Nc1cscn1)c1cc(Cl)c(Oc2cnc(-c3ccnc(F)c3)cc2-c2cccnc2)cc1F [Example 75, 5-chloro-2-fluoro-4-((2″-fluoro-[3,4′:2′,4″-terpyridin]-5′-yl)oxy)-N-(thiazol-4-yl)benzenesulfonamide]",> 0.1
20,"N#Cc1cc(S(=O)(=O)Nc2nccs2)ccc1Oc1cnc(-c2cn[nH]c2)cc1-c1ccoc1 [Example 45, 3-cyano-4-((4-(furan-3-yl)-6-(1H-pyrazol-4-yl)pyridin-3-yl)oxy)-N-(thiazol-2-yl)benzenesulfonamide]",> 0.1
21,"N#Cc1cc(S(=O)(=O)Nc2nccs2)ccc1Oc1cnc(-c2ccccc2)cc1-c1cnn(C2CC2)c1 [Example 44, 3-cyano-4-((4-(1-cyclopropyl-1H-pyrazol-4-yl)-6-phenylpyridin-3-yl)oxy)-N-(thiazol-2-yl)benzenesulfonamide]",> 0.1
22,"O=S(=O)(Nc1nccs1)c1cc(Cl)c(Oc2cnc(-c3cccc(F)c3)cc2-c2cccnc2)cc1F [Example 73, 5-chloro-2-fluoro-4-((6′-(3-fluorophenyl)-[3,4′-bipyridin]-3′-yl)oxy)-N-(thiazol-2-yl)benzenesulfonamide]",> 0.1
23,"Cn1nccc1-c1cc(-c2cccnc2F)ncc1Oc1ccc(S(=O)(=O)Nc2nccs2)cc1C#N [Example 18, 3-cyano-4-((2′-fluoro-4-(1-methyl-1H-pyrazol-5-yl)-[2,3′-bipyridin]-5-yl)oxy)-N-(thiazol-2-yl)benzenesulfonamide]",> 0.1
24,Cn1nccc1-c1cc(-c2ccccc2)ncc1Oc1ccc(S(=O)(=O)Nc2nccs2)cc1C#N [Example 2],> 0.1
25,"O=S(=O)(Nc1cscn1)c1cc(F)c(Oc2cnc(-c3ccc(F)c(F)c3)cc2-c2cncnc2)cc1F [Example 96, 4-((6-(3,4-difluorophenyl)-4-(pyrimidin-5-yl)pyridin-3-yl)oxy)-2,5-difluoro-N-(thiazol-4-yl)benzenesulfonamide]",> 0.1

# — patent US9376429B2, “Sodium channel blockers, preparation method thereof and use thereof” (Daewoong Pharmaceutical Co., Ltd., priority 2012, dated 2016)
